Test results published in US20080170990A1, “Methods for Myocardial Imaging in Patients Having a History of Pulmonary Disease” (CV THERAPEUTICS, INC., priority 2006, published 2008).

Tests used:
[1] = test system: patients undergoing a clinically indicated coronary catheterization; experiment: Coronary blood flow velocity (CBFv) by Doppler flow wire after IV bolus, open label study (Example 1); type: in vivo, human; details: 18 μg intracoronary (IC) Ado; mean ±SD
Experimental: The purpose of this open label study was to determine the magnitude and duration of effect of Regadenoson (10-500 μg) on CBFv in humans.
Patients undergoing a clinically indicated coronary catheterization with no more than a 70% stenosis in any coronary artery and no more than a 50% stenosis of the study vessel had CBFv determined by Doppler flow wire. Study subjects were selected after measuring baseline and peak CBFv after an intracoronary (IC) injection of 18 μg of Ado. Twenty-three patients, who were identified as meeting the study criteria of having a peak to baseline CBFv ration of ≧2.5 in response to Adenosine, received a rapid (≦10 sec) peripheral IV bolus of Regadenoson; Doppler signals were stable and interpretable over the time-course of the increase in CBFv in 17 patients.

[2] = test system: subjects undergoing stress/rest MPI; experiment: Stress/rest SPECT myocardial perfusion imaging, adenosine vs Regadenoson (Example 6); type: in vivo, human; details: SPECT MPI, 17-segment model; p=n.s.
Experimental: To determine the ability of Regadenoson to produce coronary hyperemia and accurately detect CAD, 35 subjects (26 men, 9 women; 67±10 years) underwent both A and Regadenoson stress/rest MPI, with 10.0±9.1 days between studies. […] Regadenoson [400 mcg (n=18), 500 mcg (n=17)] was administered as an IV bolus immediately followed by a saline flush, and then a Tc-99m radiopharmaceutical [sestamibi (n=34), tetrofosmin (n=1)]. SPECT images were uniformly processed, intermixed with control studies (normal and fixed-only defects), and interpreted by three observers in a blinded fashion using a 17-segment model. Quantitative analysis was also performed using 4D MSPECT. In addition to three separate readings, a consensus interpretation was performed and then a direct, same-screen comparison of A and REGADENASON images undertaken to determine relative differences, using 5 regions per study.

[3] = test system: COPD patients; details: both, human, in vivo
Source text: COPD patients were selected from two phase III randomized, triple-blind, placebo-controlled, multicenter studies (N=2,015) designed to test the strength of agreement for reversible cardiac defects between ADO and REG. There were 35 patients in the ADO group and 69 in the Regadenoson group. Age and gender were similar between ADO (68=11 yrs; 77% male) and Regadenoson group (68±11 yrs; 81% male). Of the 35 patients, 5 suffered (14%) cardiac symptoms in the ADO group vs 3/69 (4%) in the Regadenoson group (p=0.12); 14/35 (40%) in the ADO vs. 20/69 (29%) in the Regadenoson group resorted respiratory symptoms (p=0.28). Angina, occurrence of second degree AV block, acute pulmonary oedema and ronchi were higher in ADO group; nausea, GI discomfort and headache occurred more often in the Regadenoson group.

[4] = test system: awake rats; experiment: Sympathoexcitation: heart rate, blood pressure and plasma catecholamines after i.v. bolus (Example 5); type: in vivo, rat; details: in the presence of hexamethonium 10 mg/kg, n=5
Experimental: CVT (0.31 μg/kg-50 μg/kg) was given as a rapid i.v. bolus to awake rats and heart rate (HR) and blood pressure (BP) were monitored. Regadenoson caused an increase in BP and systolic pressure (SP) at lower doses while at higher doses there was a decrease in BP and SP. […] The increase in HR was evident at the lowest dose of CVT at which there was no appreciable decrease in BP. ZM241385 (30 μg/kg, N=5), an A2A adenosine receptor antagonist, attenuated the decrease in BP (Regadenoson: 14±3%, ZM: 1±1%) and the increase in HR (CVT: 27±3%, ZM: 18±3%) caused by Regadenoson. Pretreatment with metoprolol (MET, 1 mg/kg, n=5), a beta-blocker, attenuated the increase in HR (CVT: 27±3%, MET: 15±2%), but had no effect on hypotension caused by Regadenoson. In the presence of hexamethonium (HEX, 10 mg/kg, n=5), a ganglionic blocker, the tachycardia was prevented (CVT: 27±3%, HEX: −1±2%), but BP was further reduced (CVT: −11±2%, HEX: −49±5%).

SMILES	peak to baseline CBFv ratio [1]	summed score following stress, visual analysis [2]	patients with cardiac symptoms [3] [%]	patients with cardiac symptoms, number [3]	patients with respiratory symptoms [3] [%]	patients with respiratory symptoms, number [3]	BP change caused by Regadenoson [4] [%]	HR change (tachycardia) caused by Regadenoson [4] [%]
Nc1ncnc2c1ncn2[C@@H]1O[C@H](CO)[C@@H](O)[C@H]1O [ADO, adenosine, reference compound]	3.2±0.5	133.9±1.5	14	5	40	14/35	–	–
C[N+](C)(C)CCCCCC[N+](C)(C)C [hexamethonium, reference compound]	–	–	–	–	–	–	−49±5	−1±2
